Measured values as given in patent EP0348967A2, “Synthetic lung surfactant preparation comprising lipids and polypeptides” (MERRELL PHARMACEUTICALS INC., priority 1988, dated 1990).

Test system: adult rat lung
Assay: adult rat lung model (pressure-volume curve, lung compliance)
Type: in vivo
Settings: pressure-volume curves (Figs. 1 and 2), three ml of the preparations of Examples 1 and 2 tested
Experimental: The synthetic surfactant preparations were tested in the adult rat lung model (Ikegami, et al., (1979) Pediatr. Res. 13, 777-780). Reference I and Reference II, consisting of DPPC, alone and dog lung surfactant, respectively, were employed as reference standards. Three ml of the preparations from each of examples 1 and 2 were tested in an adult rat lung model. […] Results are illustrated in Figures 1 and 2.

SMILES: CCCCCCCCCCCCCCCC(=O)OC[C@H](COP(=O)([O-])OCC[N+](C)(C)C)OC(=O)CCCCCCCCCCCCCCC [Reference I, dipalmitoylphosphatidylcholine]
- compliance of the rat lung: no effect
